Source: patent US9204630B2, “Capsule formulation” (Syngenta Participations AG, priority 2005, dated 2015)

Assay: Screen of EC formulations for substances that photoprotect emamectin benzoate
Type: physicochemical
Design: key: #1 represents no improvement; #3 represents those photoprotectants that conferred a significant improvement in photostability
Details: performance of the photostabiliser relative to the non-photostabilised EC; 2% w/w emamectin benzoate EC, photoprotectant to insecticide 1:1; deposits on glass irradiated in Suntest, HPLC-MS
Protocol: The photoprotectant to be screened was either dissolved or dispersed in a simple Solvesso 200 based EC formulation containing 2% w/w emamectin benzoate, 10% w/w Soprophor BSU and 3% w/w phenyl sulfonate calx. The weight ratio of photoprotectant to insecticide was 1:1.
The ECs were diluted in water to the typical field application rate of emamectin benzoate, 10 g ai/ha at a spray volume of 200 l/ha. 2 μl droplets were applied to clean glass microscope slides and allowed to dry prior to being irradiated in an Atlas XLS+ Suntest artificial sunlight simulator, which employs a filtered xenon light source providing a spectral energy distribution similar to natural outdoor exposure. After irradiation, deposits were removed from the glass slides by a solvent wash and quantified by high performance liquid chromatography (HPLC) with mass-spectrometric (MS) detection.

Molecule | Screen Result
1-[[4-[(dimethylphenyl)azo]dimethylphenyl]azo]-2-naphthalenol [Example 1I] | 3
Nc1c(S(=O)(=O)[O-])cc(Nc2ccccc2)c2c1C(=O)c1ccccc1C2=O.[Na+] [Example 1A, monosodium 1-amino-9,10-dihydro-9,10-dioxo-4-(phenylamino)-2-anthracenesulfonate] | 3
CC(C)Nc1ccc(NC(C)C)c2c1C(=O)c1ccccc1C2=O [Example 1B, 1,4-bis[(1-methylethyl)amino]-9,10-anthracenedione] | 3
Cc1cc(S(=O)(=O)[O-])ccc1N=Nc1c(O)ccc2ccccc12.[Na+] [Example 1C, monosodium 4-[(2-hydroxy-1-naphthalenyl)azo]-3-methyl-benzenesulfonate] | 3
O=[N+]([O-])c1ccc(N=Nc2ccc(Nc3ccccc3)cc2)cc1 [Example 1D, 4-[(4-nitrophenyl)azo]-N-phenyl-benzenamine] | 3
Oc1ccc(N=Nc2ccc(N=Nc3ccccc3)c3ccccc23)cc1 [Example 1E, 4-[[4-(phenylazo)-1-naphthalenyl]azo]-phenol] | 3
CCN(CCC#N)c1ccc(N=Nc2ccc([N+](=O)[O-])cc2)cc1 [Example 1F, 3-[ethyl[4-[(4-nitrophenyl)azo]phenyl]amino]-propanenitrile] | 3
Nc1ccc(N=Nc2ccc([N+](=O)[O-])cc2)cc1 [Example 1G, 4-[(4-nitrophenyl)azo]-benzenamine] | 3
Cc1ccccc1N=Nc1cc(C)c(N=Nc2c(O)ccc3ccccc23)cc1C [Example 1H, 1-[[2,5-dimethyl-4-[(2-methylphenol)azo]phenyl]azo]-2-naphthalenol] | 3
Cc1ccccc1N=Nc1c(O)ccc2ccccc12 [Example 1J, 1-(ortho-tolylazo)-2-naphthol] | 3
Oc1ccc2ccccc2c1N=Nc1ccc(N=Nc2ccccc2)cc1 [Example 1K] | 3
CC1(C)Nc2cccc3c(N=Nc4ccc(N=Nc5ccccc5)c5ccccc45)ccc(c23)N1 [Example 1M, 2,3-dihydro-2,2-dimethyl-6-[[4-(phenylazo)-1-naphthalenyl]azo]-1H-perimidine] | 3
Oc1ccc2ccccc2c1N=Nc1ccccc1 [Example 1N, 1-(phenylazo)-2-naphthalenol] | 3
Cc1cc(N=Nc2ccc(N=Nc3c(O)ccc4ccccc34)c(C)c2)ccc1O [Example 1O, 1-[[2-methyl-4-[(2-methylphenol)azo]phenyl]azo]-2-naphthalenol] | 3
COc1ccc(C=C(C(=O)OC2CC(C)(C)N(C)C(C)(C)C2)C(=O)OC2CC(C)(C)N(C)C(C)(C)C2)cc1 [Example 1R, propanedioic acid, [(4-methoxy-phenyl)-methylene]-, bis(1,2,2,6,6-pentamethyl-4-piperidinyl)ester] | 3
CC(C)(C)CC(C)(C)c1ccc([O-])c(Sc2cc(C(C)(C)CC(C)(C)C)ccc2[O-])c1.CCCCN.[Ni+2] [Example 1S, 2,2′-thiobis[4-t-octylphenolato]-beta-butylamine nickel (II)] | 3
